{"source": "ChEMBL document CHEMBL1155176", "about": "“Investigating Toll-like receptor agonists for potential to treat hepatitis C virus infection” (Antimicrob Agents Chemother, 2007)", "key": {"[1]": {"tested_on": "PBMC", "test": "Toxic induction of IL1-beta level in human PBMC assessed as drug level causing maximal cytokine induction after 24 hrs relative to control", "type": "toxicity, cell-based"}, "[2]": {"tested_on": "PBMC", "test": "(§1) Increase in IFNalpha level in human PBMC after 24 hrs relative to control", "type": "functional, cell-based"}, "[3]": {"tested_on": "Hepatitis C virus", "test": "Antiviral activity against HCV infected human Huh7 replicon cells assessed as viral levels by luciferase assay", "type": "functional, organism-based", "conditions": "Hepacivirus hominis; Huh-7"}, "[4]": {"tested_on": "PBMC", "test": "Toxic induction of IL6 level in human PBMC assessed as drug level causing maximal cytokine induction after 24 hrs relative to control", "type": "toxicity, cell-based"}, "[5]": {"tested_on": "Hepatitis C virus", "test": "Antiviral activity against HCV infected human Huh7 replicon cells treated with drug-induced human PBMC supernatants assessed as viral levels by luciferase assay", "type": "functional, organism-based", "conditions": "Hepacivirus hominis"}, "[6]": {"tested_on": "PBMC", "test": "Increase in 2',5'-oligoadenylate synthase level in human PBMC after 24 hrs by PCR method relative to control", "type": "functional, cell-based"}, "[7]": {"tested_on": "PBMC", "test": "Toxic induction of TNFalpha level in human PBMC assessed as drug level causing maximal cytokine induction after 24 hrs relative to control", "type": "toxicity, cell-based"}, "[8]": {"tested_on": "PBMC", "test": "Induction of IFNalpha2a level in human PBMC assessed as drug level causing maximal cytokine induction after 24 hrs relative to control", "type": "functional"}, "[9]": {"tested_on": "Hepatitis C virus", "test": "Antiviral activity against HCV infected human Huh7 replicon cells treated with 200 nM drug-induced human PBMC supernatants assessed as viral levels in presence of type I IFN receptor antibody by luciferase assay", "type": "functional, organism-based", "conditions": "Hepacivirus hominis"}, "[10]": {"tested_on": "Hepatitis C virus", "test": "Antiviral activity against HCV infected human Huh7 replicon cells treated with 3 uM drug-induced human PBMC supernatants assessed as viral levels in presence of type I IFN receptor antibody by luciferase assay", "type": "functional, organism-based", "conditions": "Hepacivirus hominis"}, "[11]": {"tested_on": "Hepatitis C virus", "test": "Antiviral activity against HCV infected human Huh7 replicon cells treated with 20 uM drug-induced human PBMC supernatants assessed as viral levels in presence of type I IFN receptor antibody by luciferase assay", "type": "functional, organism-based", "conditions": "Hepacivirus hominis"}, "[12]": {"tested_on": "Hepatitis C virus", "test": "Antiviral activity against HCV infected human Huh7 replicon cells treated for 48 hrs with drug-induced single donor human PBMC supernatants assessed as viral levels by luciferase assay", "type": "functional, organism-based, Hepacivirus hominis"}, "[13]": {"tested_on": "PBMC", "test": "Toxicity assessed as increase in TNFalpha level in human PBMC after 6 hrs relative to control", "type": "cell-based"}, "[14]": {"tested_on": "Hepatitis C virus", "test": "Antiviral activity against HCV infected human Huh7 replicon cells treated for 24 hrs with drug-induced human PBMC supernatants assessed as viral levels by luciferase assay", "type": "functional, organism-based", "conditions": "Hepacivirus hominis"}, "[15]": {"tested_on": "PBMC", "test": "Toxicity assessed as increase in IL6 level in human PBMC after 24 hrs relative to control", "type": "functional, cell-based"}, "[16]": {"tested_on": "Hepatitis C virus", "test": "Antiviral activity against HCV infected human Huh7 replicon cells treated for 48 hrs with drug-induced mixed donor human PBMC supernatants assessed as viral levels by luciferase assay", "type": "functional, organism-based, Hepacivirus hominis"}, "[17]": {"tested_on": "PBMC", "test": "Increase in 2',5'-oligoadenylate synthase level in human PBMC after 24 hrs relative to control", "type": "functional, cell-based"}, "[18]": {"tested_on": "PBMC", "test": "as §1", "type": "functional, cell-based", "remark": "listed apart in the source"}, "[19]": {"tested_on": "Hepatitis C virus", "test": "Antiviral activity against HCV infected human Huh7 replicon cells treated with 100 nM drug-induced human PBMC supernatants assessed as viral levels in presence of type I IFN receptor antibody by luciferase assay", "type": "functional, organism-based", "conditions": "Hepacivirus hominis"}}, "note": "Calls of active or inactive are those of the source. The calls are words filed in the database; no cut-off is given here. Residues, ends and D or L forms follow the SMILES beside them. *: point of attachment. X1 = CCCCCCCCCCCCCCCC(=O)OCC(C*)OC(=O)CCCCCCCCCCCCCCC; Palmitoyl = CCCCCCCCCCCCCCCC(=O)*", "data": [{"smiles": "COCCOc1nc(N)c2[nH]c(=O)n(Cc3ccccc3)c2n1", "values": [{"measurement": "Activity", "setting": "[1]", "value": 1, "unit": "µM"}, {"measurement": "Activity", "setting": "[2]", "value": "Dose-dependent effect"}, {"measurement": "Activity", "setting": "[3]", "value": "inactive"}, {"measurement": "Activity", "setting": "[4]", "value": 1, "unit": "µM"}, {"measurement": "Activity", "setting": "[5]", "value": "Active"}, {"measurement": "Activity", "setting": "[6]", "value": "Dose-dependent effect"}, {"measurement": "Activity", "setting": "[7]", "value": 1, "unit": "µM"}, {"measurement": "Activity", "setting": "[8]", "value": 0.1, "unit": "µM"}, {"measurement": "Activity", "setting": "[9]", "value": "inactive"}]}, {"smiles": "CCCc1nc2c(N)nc3ccccc3c2s1", "values": [{"measurement": "Activity", "setting": "[1]", "value": 3.3, "unit": "µM"}, {"measurement": "Activity", "setting": "[2]", "value": "Dose-dependent effect"}, {"measurement": "Activity", "setting": "[3]", "value": "inactive"}, {"measurement": "Activity", "setting": "[4]", "value": 3.3, "unit": "µM"}, {"measurement": "Activity", "setting": "[10]", "value": "inactive"}, {"measurement": "Activity", "setting": "[5]", "value": "Active"}, {"measurement": "Activity", "setting": "[6]", "value": "Dose-dependent effect"}, {"measurement": "Activity", "setting": "[7]", "value": 10, "unit": "µM"}, {"measurement": "Activity", "setting": "[8]", "value": 10, "unit": "µM"}]}, {"smiles": "Cc1cn([C@H]2C[C@H](OP(=O)(O)OC[C@H]3O[C@@H](n4cnc5c(=O)[nH]c(N)nc54)[C@H](O)[C@@H]3OP(=O)(O)OC[C@H]3O[C@@H](n4cc(C)c(=O)[nH]c4=O)C[C@@H]3OP(=O)(O)OC[C@H]3O[C@@H](n4cc(C)c(=O)[nH]c4=O)C[C@@H]3OP(=O)(O)OC[C@H]3O[C@@H](n4cc(C)c(=O)[nH]c4=O)C[C@@H]3OP(=O)(O)OC[C@H]3O[C@@H](n4cc(C)c(=O)[nH]c4=O)C[C@@H]3OP(=O)(O)OC[C@H]3O[C@@H](n4cnc5c(=O)[nH]c(N)nc54)[C@H](O)[C@@H]3OP(=O)(S)OC[C@H]3O[C@@H](n4ccc(N)nc4=O)[C@H](O)[C@@H]3OP(=O)(O)OC[C@H]3O[C@@H](n4cc(C)c(=O)[nH]c4=O)C[C@@H]3OP(=O)(O)OC[C@H]3O[C@@H](n4cc(C)c(=O)[nH]c4=O)C[C@@H]3O)[C@@H](COP(=O)(O)OC[C@H]3O[C@@H](n4cnc5c(=O)[nH]c(N)nc54)[C@H](O)[C@@H]3OP(O)(=S)OC[C@H]3O[C@@H](n4ccc(N)nc4=O)[C@H](O)[C@@H]3OP(=O)(O)OC[C@H]3O[C@@H](n4cc(C)c(=O)[nH]c4=O)C[C@@H]3OP(=O)(O)OC[C@H]3O[C@@H](n4cnc5c(=O)[nH]c(N)nc54)[C@H](O)[C@@H]3OP(=O)(O)OC[C@H]3O[C@@H](n4cc(C)c(=O)[nH]c4=O)C[C@@H]3OP(=O)(O)OC[C@H]3O[C@@H](n4cc(C)c(=O)[nH]c4=O)C[C@@H]3OP(=O)(O)OC[C@H]3O[C@@H](n4cc(C)c(=O)[nH]c4=O)C[C@@H]3OP(=O)(O)OC[C@H]3O[C@@H](n4cc(C)c(=O)[nH]c4=O)C[C@@H]3OP(=O)(O)OC[C@H]3O[C@@H](n4cnc5c(=O)[nH]c(N)nc54)[C@H](O)[C@@H]3OP(O)(=S)OC[C@H]3O[C@@H](n4ccc(N)nc4=O)[C@H](O)[C@@H]3OP(=O)(O)OC[C@H]3O[C@@H](n4cc(C)c(=O)[nH]c4=O)C[C@@H]3OP(=O)(O)OC[C@H]3O[C@@H](n4cc(C)c(=O)[nH]c4=O)C[C@@H]3O)O2)c(=O)[nH]c1=O", "note": "(some centres not stated)", "values": [{"measurement": "Activity", "setting": "[1]", "value": 5, "unit": "µM"}, {"measurement": "Activity", "setting": "[2]", "value": "Dose-dependent effect"}, {"measurement": "Activity", "setting": "[3]", "value": "inactive"}, {"measurement": "Activity", "setting": "[4]", "value": 0.2, "unit": "µM"}, {"measurement": "Activity", "setting": "[5]", "value": "Active"}, {"measurement": "Activity", "setting": "[6]", "value": "Dose-dependent effect"}, {"measurement": "Activity", "setting": "[7]", "value": 5, "unit": "µM"}, {"measurement": "Activity", "setting": "[8]", "value": 0.2, "unit": "µM"}]}, {"smiles": "CCCCCCCCCCCCCCCC(=O)N[C@@H](CSCC(COC(=O)CCCCCCCCCCCCCCC)OC(=O)CCCCCCCCCCCCCCC)C(=O)N[C@@H](CO)C(=O)N[C@@H](CCCCN)C(=O)N[C@@H](CCCCN)C(=O)N[C@@H](CCCCN)C(=O)N[C@@H](CCCCN)C(=O)O", "note": "(some centres not stated) (Palmitoyl-C(X1)SKKKK-OH)", "values": [{"measurement": "Activity", "setting": "[1]", "value": 1, "unit": "µM"}, {"measurement": "Activity", "setting": "[3]", "value": "inactive"}, {"measurement": "Activity", "setting": "[4]", "value": 1, "unit": "µM"}, {"measurement": "Activity", "setting": "[5]", "value": "Active"}, {"measurement": "Activity", "setting": "[7]", "value": 0.1, "unit": "µM"}, {"measurement": "Activity", "setting": "[8]", "value": 0.3, "unit": "µM"}]}, {"smiles": "CC(C)Cn1cnc2c(N)nc3ccccc3c21", "note": "[IMIQUIMOD]", "values": [{"measurement": "Activity", "setting": "[1]", "value": 0.1, "unit": "µg/mL"}, {"measurement": "Activity", "setting": "[2]", "value": "Dose-dependent effect"}, {"measurement": "Activity", "setting": "[3]", "value": "inactive"}, {"measurement": "Activity", "setting": "[4]", "value": 1, "unit": "µg/mL"}, {"measurement": "Activity", "setting": "[5]", "value": "Active"}, {"measurement": "Activity", "setting": "[6]", "value": "Dose-dependent effect"}, {"measurement": "Activity", "setting": "[7]", "value": 1, "unit": "µg/mL"}, {"measurement": "Activity", "setting": "[8]", "value": 1, "unit": "µg/mL"}, {"measurement": "Activity", "setting": "[11]", "value": "inactive"}]}, {"smiles": "CCOCc1nc2c(N)nc3ccccc3c2n1CC(C)(C)O", "note": "[RESIQUIMOD]", "values": [{"measurement": "EC50", "setting": "[12]", "value": 26.5, "unit": "nM"}, {"measurement": "Activity", "setting": "[1]", "value": 1, "unit": "µM"}, {"measurement": "Activity", "setting": "[2]", "value": "Dose-dependent effect"}, {"measurement": "Activity", "setting": "[3]", "value": "inactive"}, {"measurement": "Activity", "setting": "[4]", "value": 1, "unit": "µM"}, {"measurement": "fold change (FC)", "setting": "[13]", "value": 2.5}, {"measurement": "Activity", "setting": "[14]", "value": "Active"}, {"measurement": "Activity", "setting": "[15]", "value": "Active"}, {"measurement": "Activity", "setting": "[5]", "value": "Active"}, {"measurement": "EC50", "setting": "[16]", "value": 24, "unit": "nM"}, {"measurement": "Activity", "setting": "[6]", "value": "Dose-dependent effect"}, {"measurement": "Activity", "setting": "[7]", "value": 1, "unit": "µM"}, {"measurement": "Activity", "setting": "[17]", "value": "Active"}, {"measurement": "Activity", "setting": "[18]", "value": "Active"}, {"measurement": "Activity", "setting": "[19]", "value": "inactive"}, {"measurement": "Activity", "setting": "[8]", "value": 0.1, "unit": "µM"}]}]}
